Test results reported in PubChem BioAssay (NCI).
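1) Cells in 96-well plates. 2) Compound, 48 h, 5 concentrations. 3) Linear interpolation between surrounding doses. 4) Unreached endpoint = highest concentration. The concentration for 50% growth inhibition is given as GI50. TGI is the concentration that stops growth completely.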

Key:
Assay in all cases: DTP human tumour cell line panel, 48 h
786-0 renal = tested on: 786-0 renal
A498 renal = tested on: A498 renal
A549 NSCLC = tested on: A549 NSCLC
ACHN renal = tested on: ACHN renal
BT-549 breast = tested on: BT-549 breast
CAKI-1 renal = tested on: CAKI-1 renal
CCRF-CEM leukemia = tested on: CCRF-CEM leukemia
COLO 205 colon = tested on: COLO 205 colon
DU-145 prostate = tested on: DU-145 prostate
EKVX NSCLC = tested on: EKVX NSCLC
HCC-2998 colon = tested on: HCC-2998 colon
HCT-116 colon = tested on: HCT-116 colon
HCT-15 colon = tested on: HCT-15 colon
HL-60(TB) leukemia = tested on: HL-60(TB) leukemia
HOP-62 NSCLC = tested on: HOP-62 NSCLC
HOP-92 NSCLC = tested on: HOP-92 NSCLC
HS 578T breast = tested on: HS 578T breast
HT29 colon = tested on: HT29 colon
IGROV1 ovarian = tested on: IGROV1 ovarian
K-562 leukemia = tested on: K-562 leukemia
KM12 colon = tested on: KM12 colon
LOX IMVI melanoma = tested on: LOX IMVI melanoma
M14 melanoma = tested on: M14 melanoma
MALME-3M melanoma = tested on: MALME-3M melanoma
MCF7 breast = tested on: MCF7 breast
MDA-MB-231 breast = tested on: MDA-MB-231 breast
MDA-MB-435 = tested on: MDA-MB-435
MDA-MB-468 breast = tested on: MDA-MB-468 breast
MOLT-4 leukemia = tested on: MOLT-4 leukemia
NCI-H226 lung = tested on: NCI-H226 lung
NCI-H23 lung = tested on: NCI-H23 lung
NCI-H460 lung = tested on: NCI-H460 lung
NCI-H522 lung = tested on: NCI-H522 lung
NCI/ADR-RES ovarian = tested on: NCI/ADR-RES ovarian
OVCAR-3 ovarian = tested on: OVCAR-3 ovarian
OVCAR-4 ovarian = tested on: OVCAR-4 ovarian
OVCAR-5 ovarian = tested on: OVCAR-5 ovarian
OVCAR-8 ovarian = tested on: OVCAR-8 ovarian
PC-3 prostate = tested on: PC-3 prostate
RPMI-8226 leukemia = tested on: RPMI-8226 leukemia
RXF 393 renal = tested on: RXF 393 renal
SF-268 CNS = tested on: SF-268 CNS
SF-295 CNS = tested on: SF-295 CNS
SF-539 CNS = tested on: SF-539 CNS
SK-MEL-2 melanoma = tested on: SK-MEL-2 melanoma
SK-MEL-28 melanoma = tested on: SK-MEL-28 melanoma
SK-MEL-5 melanoma = tested on: SK-MEL-5 melanoma
SK-OV-3 ovarian = tested on: SK-OV-3 ovarian
SN12C renal = tested on: SN12C renal
SNB-19 CNS = tested on: SNB-19 CNS
SNB-75 CNS = tested on: SNB-75 CNS
SR leukemia = tested on: SR leukemia
SW-620 colon = tested on: SW-620 colon
T-47D breast = tested on: T-47D breast
TK-10 renal = tested on: TK-10 renal
U251 CNS = tested on: U251 CNS
UACC-257 melanoma = tested on: UACC-257 melanoma
UACC-62 melanoma = tested on: UACC-62 melanoma
UO-31 renal = tested on: UO-31 renal

`CCCn1c(=O)c2[nH]c(-c3ccc(OCc4nc5ccc(F)cc5[nH]4)cc3)nc2n(CCC)c1=O` was tested, and the GI50 (786-0 renal) was 16.2 µM, the TGI (786-0 renal) was greater than 100 µM and the GI50 (A498 renal) was 3.36 µM. It also gave a TGI (A498 renal) of 21.3 µM, a GI50 (A549 NSCLC) of 15.5 µM and a TGI (A549 NSCLC) greater than 100 µM. It also gave a GI50 (ACHN renal) of 14.9 µM, a TGI (ACHN renal) of 50.1 µM and a GI50 (BT-549 breast) of 25 µM. For the same molecule, the TGI (BT-549 breast) was greater than 100 µM, the GI50 (CAKI-1 renal) was 15.9 µM and the TGI (CAKI-1 renal) was 62.4 µM. For the same molecule, the GI50 (CCRF-CEM leukemia) was 8.91 µM, the TGI (CCRF-CEM leukemia) was greater than 100 µM and the GI50 (COLO 205 colon) was 99.1 µM. The TGI (COLO 205 colon) was greater than 100 µM, the GI50 (DU-145 prostate) was 41.5 µM and the TGI (DU-145 prostate) was greater than 100 µM. It also gave a GI50 (EKVX NSCLC) of 30.3 µM, a TGI (EKVX NSCLC) greater than 100 µM and a GI50 (HCC-2998 colon) greater than 100 µM. For the same molecule, the TGI (HCC-2998 colon) was greater than 100 µM, the GI50 (HCT-116 colon) was 22.4 µM and the TGI (HCT-116 colon) was greater than 100 µM. For the same molecule, the GI50 (HCT-15 colon) was 30 µM, the TGI (HCT-15 colon) was greater than 100 µM and the GI50 (HL-60(TB) leukemia) was greater than 100 µM. The TGI (HL-60(TB) leukemia) was greater than 100 µM, the GI50 (HOP-62 NSCLC) was 9.88 µM and the TGI (HOP-62 NSCLC) was greater than 100 µM. For the same molecule, the GI50 (HOP-92 NSCLC) was 4.78 µM, the TGI (HOP-92 NSCLC) was 36.8 µM and the GI50 (HS 578T breast) was 4.1 µM. The TGI (HS 578T breast) was greater than 100 µM, the GI50 (HT29 colon) was 26.9 µM and the TGI (HT29 colon) was greater than 100 µM. For the same molecule, the GI50 (IGROV1 ovarian) was 16.5 µM, the TGI (IGROV1 ovarian) was greater than 100 µM and the GI50 (K-562 leukemia) was 8.81 µM. It also gave a TGI (K-562 leukemia) greater than 100 µM, a GI50 (KM12 colon) of 78.9 µM and a TGI (KM12 colon) greater than 100 µM. It also gave a GI50 (LOX IMVI melanoma) of 15.9 µM, a TGI (LOX IMVI melanoma) of 46.9 µM and a GI50 (M14 melanoma) of 52 µM. The TGI (M14 melanoma) was greater than 100 µM, the GI50 (MALME-3M melanoma) was 12.6 µM and the TGI (MALME-3M melanoma) was 38.7 µM. For the same molecule, the GI50 (MCF7 breast) was 8.54 µM, the TGI (MCF7 breast) was 93.2 µM and the GI50 (MDA-MB-231 breast) was 15.7 µM. The TGI (MDA-MB-231 breast) was 39.3 µM, the GI50 (MDA-MB-435) was 25.1 µM and the TGI (MDA-MB-435) was greater than 100 µM. It also gave a GI50 (MDA-MB-468 breast) of 4.75 µM, a TGI (MDA-MB-468 breast) of 40.9 µM and a GI50 (MOLT-4 leukemia) of 6.44 µM. For the same molecule, the TGI (MOLT-4 leukemia) was greater than 100 µM, the GI50 (NCI-H226 lung) was 11.2 µM and the TGI (NCI-H226 lung) was 36.9 µM. The GI50 (NCI-H23 lung) was 21 µM, the TGI (NCI-H23 lung) was greater than 100 µM and the GI50 (NCI-H460 lung) was 11.1 µM. The TGI (NCI-H460 lung) was 32.3 µM, the GI50 (NCI-H522 lung) was 8.29 µM and the TGI (NCI-H522 lung) was greater than 100 µM. It also gave a GI50 (NCI/ADR-RES ovarian) of 30.4 µM, a TGI (NCI/ADR-RES ovarian) greater than 100 µM and a GI50 (OVCAR-3 ovarian) of 15.1 µM. For the same molecule, the TGI (OVCAR-3 ovarian) was 67 µM, the GI50 (OVCAR-4 ovarian) was 4.24 µM and the TGI (OVCAR-4 ovarian) was greater than 100 µM. It also gave a GI50 (OVCAR-5 ovarian) greater than 100 µM, a TGI (OVCAR-5 ovarian) greater than 100 µM and a GI50 (OVCAR-8 ovarian) of 6.34 µM. It also gave a TGI (OVCAR-8 ovarian) of 34 µM, a GI50 (PC-3 prostate) of 5.96 µM and a TGI (PC-3 prostate) greater than 100 µM. For the same molecule, the GI50 (RPMI-8226 leukemia) was 5.14 µM, the TGI (RPMI-8226 leukemia) was greater than 100 µM and the GI50 (RXF 393 renal) was 2.76 µM. It also gave a TGI (RXF 393 renal) of 11.3 µM, a GI50 (SF-268 CNS) of 25 µM and a TGI (SF-268 CNS) greater than 100 µM. The GI50 (SF-295 CNS) was 4.64 µM, the TGI (SF-295 CNS) was 65.6 µM and the GI50 (SF-539 CNS) was 12.2 µM. It also gave a TGI (SF-539 CNS) of 27.7 µM, a GI50 (SK-MEL-2 melanoma) greater than 100 µM and a TGI (SK-MEL-2 melanoma) greater than 100 µM. For the same molecule, the GI50 (SK-MEL-28 melanoma) was 28.1 µM, the TGI (SK-MEL-28 melanoma) was greater than 100 µM and the GI50 (SK-MEL-5 melanoma) was 8.5 µM. For the same molecule, the TGI (SK-MEL-5 melanoma) was 33.3 µM, the GI50 (SK-OV-3 ovarian) was 21 µM and the TGI (SK-OV-3 ovarian) was greater than 100 µM. For the same molecule, the GI50 (SN12C renal) was 16.5 µM, the TGI (SN12C renal) was greater than 100 µM and the GI50 (SNB-19 CNS) was greater than 100 µM. The TGI (SNB-19 CNS) was greater than 100 µM, the GI50 (SNB-75 CNS) was 2.48 µM and the TGI (SNB-75 CNS) was 20.2 µM. It also gave a GI50 (SR leukemia) of 22.3 µM, a TGI (SR leukemia) greater than 100 µM and a GI50 (SW-620 colon) of 37.2 µM. For the same molecule, the TGI (SW-620 colon) was greater than 100 µM, the GI50 (T-47D breast) was 4.4 µM and the TGI (T-47D breast) was 50.4 µM. It also gave a GI50 (TK-10 renal) of 24.4 µM, a TGI (TK-10 renal) greater than 100 µM and a GI50 (U251 CNS) of 17.3 µM. The TGI (U251 CNS) was greater than 100 µM, the GI50 (UACC-257 melanoma) was 30.4 µM and the TGI (UACC-257 melanoma) was greater than 100 µM. The GI50 (UACC-62 melanoma) was 12.3 µM, the TGI (UACC-62 melanoma) was greater than 100 µM and the GI50 (UO-31 renal) was 9.09 µM. For the same molecule, the TGI (UO-31 renal) was 29 µM.
